Test results: article PMC3684770 (Free Radical Biology & Medicine, 2013)
Where two headings read alike, the source gives them in different places.

Experiments:
Nrf2-ARE pathway [1] = experiment: ARE reporter assay in CHO 4xARE-TK-GFP cells (Spectrum library hits)
Procedure: The Z′ score was calculated as follows Z′=1−(3SD^++3SD^−)/(Ave^+–Ave^−) where SD^+ = standard deviation of positive control wells; SD^− = standard deviation of negative control wells; Ave^+ = average fluorescence reading of positive control wells; Ave^− = average fluorescence reading of negative control wells.
Media was removed by hand and replaced (1 compound/well) with the Spectrum library diluted to 10 μM in 0.1% DMSO using a Q-bot liquid handling system (Genetix, New Milton, UK). […] The TK-GFP CHO ARE cell line was screened twice in a single point assay and the control TK-GFP CHO cell line was screened once to eliminate false positives.
The compounds were applied in triplicate to confluent cells in 96 well plates in serum free medium for 24 hours and the induction of GFP measured in a fluorescence plate reader.
In order to screen the Spectrum collection of 2000 molecules the reporter assay was optimised in […]. To assess the suitability of the assay for library screening, a Z’ score calculation was performed by treating alternate wells with vehicle (0.1% DMSO) and 10 µM Ebselen as a positive control (see calculation in Methods). […] The library was subsequently screened at a single point concentration of 10µM for every compound. Drug library dilutions and plating were performed with a Q-BOT liquid handling system and both the 4xARE-TK-GFP reporter cell line and TK-GFP control cell line were tested for their response to the compounds. Hits were identified as having data points more than three standard deviations above the background level, which was the average value of 24 wells treated with vehicle (0.1% DMSO) only. Hit compounds were checked to see if they generated a response in the control cell line, for example by non-specific activation of transcription or autofluorescence. […] The library screen was repeated once in the 4xARE –TK-CHO cell line and compounds classed as hits in both screens were taken forward for further assessment.

[2] = test system: 1321N1 astrocyte cell line; experiment: 1321N1 oxidative stress assay (serum withdrawal, DCF); conditions: Homo sapiens; for Emax: 1321-N1, 24 h, read-out: 1321N1 oxidative stress assay Max reduction; for IC50: 1321-N1, read-out: 1321N1 oxidative stress assay IC50
Procedure: (§3) Media were then replaced with serum-free, phenol-free media for 5 h.

C6 astrocyte cell line [3] = test system: C6 astrocyte cell line
Procedure: as §3

[4] = test system: 1321N1 astrocyte cell line
Procedure: as §3

NSC34 cells [5] = experiment: NSC34 oxidative stress assay (serum withdrawal, DCF); conditions: Mus musculus, NSC-34, 24 h, read-out: NSC34 oxidative stress assay Max reduction
Procedure: as §3

C6 astrocyte cell line [6] = experiment: C6 oxidative stress assay (serum withdrawal, DCF); conditions: Rattus norvegicus, Astrocyte; for Emax: 24 h, read-out: C6 oxidative stress assay Max reduction; for IC50: read-out: C6 oxidative stress assay IC50
Procedure: as §3

NSC34 cells [7] = test system: NSC34 cells
Procedure: as §3

[8] = test system: primary fibroblasts from ALS patients; experiment: Menadione-induced cell death in fibroblasts (MTT); type: cell-based, human; conditions: sporadic and I113T SOD1 ALS fibroblasts, 4 µM
Procedure: The method used was essentially as described previously. Briefly methylthiazolyldiphenyl-tetrazolium bromide (MTT) was added to the cells and a blank well to a final concentration 0.5 mg/ml and incubated at 37 °C for 1–3 h depending on the cell line used. Cells and reaction product were solubilised in 20% SDS/50% DMF for 1 h with shaking at room temperature before reading the absorbance at 595 nm.

Nrf2-ARE pathway [9] = experiment: ARE reporter assay in C6 astrocyte cell line (C6-ARE); type: cell-based, rat
From the text: (§1) Chinese hamster ovary (CHO), NSC34 mouse motor neuronal cells […] The ARE-TK-GFP and TK-GFP reporter constructs were a kind gift from William E. Fahl McArdle Laboratory for Cancer Research, University of Wisconsin. […] The NSC34 cell lines stably expressing G93A mutant hSOD1 have been described previously. […] Mouse embryonic fibroblasts were generated and maintained as described previously.

[10] = test system: NQO1 and HO-1 gene expression; experiment: Q-RTPCR in astrocytes from SOD1G93A transgenic mice; type: cell-based, mouse; conditions: G93A SOD1 astrocytes, 24-h pretreatment at EC90 (andrographolide also EC50)
Procedure: (§2) Nrf2 Target gene expression was determined using Q-RTPCR as described previously using the following primers: Ho-1 forward primer, cac ttc gtc aga ggc ctg cta; Ho-1 reverse primer, gcg gtg tct ggg atg agc ta; Nqo1 forward primer, cgc ctg agc cca gat att gt; Nqo1 reverse primer, act gca atg gga act gaa ata tca; GAPDH forward, gaa acc tgc caa gta tga tga cat; GAPDH reverse, ggt cct cag tgt agc cca aga t.

SOD1G93A transgenic mice = experiment: SOD1G93A transgenic mouse model of ALS; type: in vivo
Procedure: Pharmacology experiments in SOD1^G93A transgenic mice were conducted according to the published guidelines for studies in this model. […] The litters were split to enable an even distribution of sex and parentage between the two comparison groups and the groups randomly assigned to treatment or control. […] Behavioural assessment was carried out blinded to treatment group. Rotarod training was performed over 3 days with 2 trials per day. Subsequently, the rotarod test was performed once per week in the afternoon. On each day, mice were tested twice with a rest period in between tests. The best score was taken for analysis. […] Latency to fall (s) was recorded in seconds for each mouse. […] They were placed on the catwalk apparatus in complete darkness and the recording of gait patterns was performed in a separate room. Multiple runs were recorded for each mouse and three selected for analysis. Processing of gait data was performed using the dedicated software, with the assignment of limbs performed manually and subsequent automated calculation of gait parameters.
Specimens were incubated overnight in 20% sucrose and then embedded in OCT embedding matrix. Thirty five-micrometer-thick longitudinal sections were collected. […] Images were captured on an Incell 2000 and innervated (yellow) or denervated (red) end-plates were counted with a minimum of 1000 NMJs counted per animal.

[11] = Pharmacokinetic analysis in C57Bl/6 mice; type: in vivo, mouse; conditions: C57Bl/6, mouse, brain / plasma; iv 1 mg/kg; read-out: brain uptake (AUCinfinity brain / AUCinfinity plasma)
Procedure: Pharmacokinetic studies were performed by Pharmidex (London, UK). […] All concentrations were calculated with reference to the relevant standard curve. An extraction buffer (EB) solution of acetonitrile with 0.1% formic acid (Fisher Scientific, HPLC grade) and 500 ng/ml of propranolol as the internal standard (IS) was used for in all extraction protocols.

[12] = test system: primary fibroblasts from ALS patients; experiment: Oxidative stress assay in ALS patient and control fibroblasts; type: cell-based, human; conditions: 4 µM
Procedure: Fibroblasts were obtained from human controls (n=3) and ALS patients with I113T SOD1 mutations (n=3) and sporadic ALS patients (n=2). […] The cells were incubated at 37 °C/5% CO2 overnight. The following day the media were removed and the cells were washed with 200 µl 1XP BS. Phenol red-free DMEM/F12 media (Sigma D6434) was added in the presence of 10% serum/2 mM Gln (++), 10% serum/0 mM Gln (+−), or 0% serum/0 mM Gln (−−). Cells were incubated at 37 °C/5% CO2 for 5 h.
Carboxy-H2DCFDA fluorescence was normalised to live cell number (total EthD1 signal after freeze/thaw – EthD1 signal after assay) to compare between the different cell lines. Data were analysed by one-way ANOVA with Bonferroni post tests using GraphPad Prism
DMEM/F12 (50 µl) media were added in the presence of 10% serum/0 mM Gln (+−) and the cells were incubated at 37 °C and 5% CO2 for 5 h.
The data were tested for normality and analysed by one-way ANOVA using GraphPad Prism.

primary mouse astrocytes = experiment: Total glutathione assay in primary mouse astrocytes and conditioned media; type: cell-based; conditions: 24-h pretreatment
Procedure: Primary astrocytes were grown to confluency in 24-well plates and then treated with drug (or 0.05% DMSO vehicle) in phenol red-free DMEM containing 10% FBS and penicillin/streptomycin for 24 h. Conditioned medium was collected and astrocytes were then washed in ice-cold PBS before addition of 250 μl/well of sulphosalicylic acid (SSA, 5% (w/v)). Plates were frozen at −80 °C and thawed at 37 °C, twice, and then incubated at 4 °C for 15 min. The supernatant was removed and centrifuged at 13,000 g for 5 min. Conditioned medium samples were incubated at 80 °C for 15 min and then centrifuged at 13,000 g for 5 min. Samples were either used immediately or stored at −80 °C. Reaction mixture (150 μl/well; 100 mM potassium phosphate buffer, pH 7.0, 1 mM EDTA, 6 Units/ml glutathione reductase, 1.5 mg/ml 5,5′-dithiobis(2-nitrobenzoic acid)) was added to 10 μl of each sample or glutathione standard (0–50 μM reduced glutathione) in a 96-well plate and incubated at room temperature for 5 min before addition of 50 μl/well of NADPH solution (0.16 mg/ml). A412nm was measured every minute for 15 min and the total glutathione concentration (GSH + GSSG) was calculated from initial rates. Samples were tested in triplicate.

[13] = test system: HO-1 and NQO1 gene expression; experiment: Q-RTPCR of Nrf2-regulated genes in primary mouse astrocytes; type: cell-based; conditions: 24-h treatment at EC50 and EC90
Procedure: as §2

[14] = test system: primary mouse motor neurons; experiment: Primary motor neuron/astrocyte coculture, menadione stress; type: cell-based; conditions: 24-h pretreatment, 6 h 10 µM menadione
Procedure: Mouse glial cultures were established based on published methods [[68,69]]. Primary spinal cord motor neurons (MNs) were cultured from E13.5 C57Bl/6 mouse embryos as described previously. Cocultures were allowed to establish for 2 weeks and neuroprotection assays performed. Cocultures were exposed to drug or vehicle for 24 h followed by a 6-h treatment with menadione (10 μM) to induce oxidative stress or with no stress to determine the effect of drug alone. Following stress treatment, coverslips were washed 3 times, fixed, and permeabilised, and MNs immunostained with SMI32 (Covance, UK). Total MNs were counted by fluorescence microscopy in a 1.5 cm^2 area per coverslip. A minimum of three repeats in triplicate were performed per condition. Both vehicle and drug treatments were counted with and without stress treatment, and results were analysed by two-way ANOVA using Bonferroni post tests.

HO-1 gene expression = experiment: Pharmacodynamic analysis: gene expression in spinal cord; type: in vivo, mouse; conditions: 5 mg/kg sc, 48 h postdosing
From the text: RNA was isolated using Qiagen RNeasy mini kit and Q-RTPCR performed on HO-1 and NQO-1 genes as described previously.

Nrf2-ARE pathway [15] = experiment: ARE reporter assay in NSC34 cell line (NSC34-ARE); type: cell-based, mouse
From the text: as §1

[16] = test system: HO-1 and NQO1 gene expression; experiment: Q-RTPCR of Nrf2-regulated genes in C6 cells; type: cell-based, rat; conditions: C6, 24-h treatment at EC50 and EC90
Procedure: as §2

[17] = lowest dose at which a reduction in GFP fluorescence was observed

Row | Structure (SMILES) | EC50 (Nrf2-ARE pathway [1]; Cricetulus griseus) [µM] | Toxic dose (Nrf2-ARE pathway [1]; [17]) | Emax [2] [%] | IC50 [2] [µM] | C6 oxidative stress assay Toxic dose (C6 astrocyte cell line [3]) | 1321N1 oxidative stress assay Toxic dose [4] | Emax (NSC34 cells [5]) [%] | Emax (C6 astrocyte cell line [6]) [%] | IC50 (C6 astrocyte cell line [6]) [µM] | NSC34 oxidative stress assay Toxic dose (NSC34 cells [7]) | other results
1 | Oc1ccc(O)cc1 [Hydroquinone, reference compound] | 3.07 | 100 µM | 80 | 3.38 | None | None | 0 | 67 | 7.07 | None | 
2 | CC(=O)CCC(=O)O [Levulinic acid] | 12 | None | 58 | 3.31 | None | None | 15 | 62 | 7.69 | None | 
3 | C=C(C)C1(O)OC(=O)C=C1OC (stereo not drawn) [Penicillic acid] | 14.9 |  | 45 |  | none | none | 9 | 68 | 4.62 | none | Toxic dose (Nrf2-ARE pathway [1]; Chinese hamster): 100 µM; maximal fold induction (Nrf2-ARE pathway [1]; Cricetulus griseus, CHO, 24 h, read-out: Fold GFP induction): 2.64
4 | O=C(CCBr)N1CCN(C(=O)CCBr)CC1 [Pipobroman, reference compound] | 10 | 100 µM | 19 | 3.16 | none |  | 30 | 71 | 11 | none | 1321N1 oxidative stress assay Toxic dose ([4]; human): 10 µM
5 | CN1CCc2cccc3c2[C@@H]1Cc1ccc(O)c(O)c1-3 [S[+]-apomorphine] |  |  |  |  |  |  |  |  |  |  | menadione-induced cell death (MTT) [8]: significantly attenuated cell death; potency of Nrf2-ARE activation compared with the R[–] enantiomer (Nrf2-ARE pathway [9]; C6 cells): equally potent; EC50 (Nrf2-ARE pathway [9]; Rattus norvegicus, C6 astrocyte cell line, concentration used in fibroblast assay, read-out: approximate EC50 concentration): ~4 µM; transcripts for NQO1 and HO1 [10]: significant increase in transcripts; time taken to reach a 20% decline in rotarod performance (median) (SOD1G93A transgenic mice; 5 mg/kg sc daily from Day 21, vehicle 6 weeks): 8 weeks; oxidised glutathione levels in spinal cord (SOD1G93A transgenic mice; 60 days of age, vehicle 7.1): 4.2 µM; gastrocnemius muscle innervation (SOD1G93A transgenic mice; 60 days of age, vehicle 28.1%): 39.5%; survival (SOD1G93A transgenic mice; failure of the righting response within 10 s): did not observe a significant improvement in survival; fore-limb and hind-limb stride length (gait analysis) (SOD1G93A transgenic mice; later stages of disease): significant delay in decline; motor neuron numbers at end-stage (SOD1G93A transgenic mice; mouse, in vivo): did not observe a significant improvement; Kp [11]: 2.28; reduction of oxidative stress (DCF) in control fibroblasts ([12]; control fibroblasts): nonsignificant; basal oxidative stress (DCF) in patient fibroblasts ([12]; sporadic and I113T SOD1 ALS fibroblasts, 24 h): significant reduction in basal oxidative stress; total glutathione levels (primary mouse astrocytes): enhance glutathione production; HO-1 and NQO1 gene expression [13]: statistically significant changes in gene expression; motor neuron numbers after menadione [14]: significant neuroprotective effects; HO-1 gene induction in whole spinal cord (HO-1 gene expression): 3.5 fold; activation of Nrf2-ARE reporter (Nrf2-ARE pathway [15]): shows some activation; concentration showing activation of Nrf2-ARE reporter (Nrf2-ARE pathway [15]): ≥ 1 µM; HO-1 and NQO1 gene expression [16]: statistically significant changes in gene expression
